According to patent US20230241014A1, “MEK-INHIBITORS FOR THE TREATMENT OR PREVENTION OF CORONAVIRUS INFECTIONS AND/OR COVID-19 CYTOKINE STORM” (priority 2020, published 2023):

Tested on: SARS-CoV-2 SA variant B.1351
Assay: Virus yield reduction assay against SARS-CoV-2 SA variant B.1351
Type: cell-based
Conditions: MOI 0.1, 1 and 10, 50, 75, 100 μM, 24 h

SMILES: O=C(O)c1ccc(F)c(F)c1Nc1ccc(I)cc1Cl [ATR-002, 2-(2-chloro-4-iodophenylamino)-N-3,4-difluoro benzoic acid]
- virus yield (RT-qPCR) (Calu-3): reduction of virus yield
- virus yield (RT-qPCR) (Vero): reduction of virus yield
